Experimental findings from US5208246A, “Tetralones with pharmacological activity” (J. Uriach & Cia., priority 1991, dated 1993) are described below.

The subject of assay [1] is trachea isolated from guinea pig. Kind of assay: Test 3: Direct relaxation of the trachea isolated from guinea pig. The note with it: Cavia porcellus; 50% of the maximum relaxation; maximum = relaxation by isoproterenol at 1×10^-6 M; cumulative addition; basal tension 0.5 g; 37° C. On the procedure:
Test 3-Direct relaxation of the trachea isolated from guinea pig.
This test was performed according to the experimental model described by Emmerson, J. and Mackay, D. (J. Pharm. Pharmacol., 1979, 31, 798). Tracheas were extracted from male guinea pigs of 400 g of body weight, which had been stunned by a blow in the head. Then, tracheas were cut in zigzag and placed into an isolated organ bath (Letica) containing Krebs-Henseleit solution at 37° C. and were bubbled with carbogen (95% O2 and 5% CO2). The relaxation of the trachea was measured using an isometric force transducer. The basal tension was 0.5 g.

Assay [2] relates to portal vein isolated from rat. Kind of assay: Test 1: Inhibition of the contraction induced by noradrenaline in portal vein isolated from rat. The note with it: 0.5 h. On the procedure:
Test 1: Inhibition of the contraction induced by noradrenaline in portal vein isolated from rat.
Portal vein was extracted from adult male rats (between 200 and 250 g of body weight), which had been stunned by a blow in the head. Portal vein was installed into an isolated organ bath (Letica) containing a physiological saline solution (Hamilton et al., Br. J. Pharmacol., 1986, 103-111) at 37° C. and a gas bubbler (5% CO2 and 95% O2). Contractions were induced by noradrenaline (3 μM) and were reverted after thoroughly washing with physiological saline solution. Portal vein contraction was measured with an isometric force transducer and with an initial tension of 1 g. After two contractions with noradrenaline, performed in order to measure the tissue's basal response, the tested compounds were incubated for 30 minutes and a new contraction was induced.

Another assay deals with hypertense rats. Nature of the assay: Test 2: Lowering of the arterial pressure in concious hypertense rats. The note with it: 1 mg/Kg p.o.; spontaneously hypertense rats, conscious; 3 animals; arterial pressure every 60 minutes during 4 hours. The class given is in vivo, rat. On the procedure: Test 2: Lowering of the arterial pressure in concious hypertense rats.
Spontaneously hypertense rats (between 200 and 250 g of body weight) of more than 8 weeks of age have been used. Diastolic and systolic arterial pressure of the rat was measured at the caudal artery using a special sphygnomanometer (Letica 5007 and 5007/4) attached to the animal's tail. To ensure rapid and reliable data, animals were placed in a heating plate at 37° C., with the aim to produce a vasodilation that ensured a better fixation of the rat tail to the transfer chamber. During the experiment, rats are conscious and fixed to a clamp. The tested products were administered orally. Arterial pressure was measured every 60 minutes during 4 hours and 10 minutes before the administration of the tested compound. The decrease of the arterial pressure was calculated for each compound at a dose of 1 mg/Kg, using 3 animals.

One may read the EC50 as the concentration needed to bring the measured effect to its halfway point. A high value points to lower potency in that assay. As usually defined, the IC50 is the concentration that gives 50% inhibition. Higher therefore signals a need for much substance. As to `CC1(C)C=C(n2ccccc2=O)c2cc(Br)ccc2C1=O` [Compound 16, 6-bromo-1,2-dihydro-4-(1,2-dihydro-2-oxo-1-pyridyl)-2,2-dimethylnaphthalen-1-one], the EC50 in assay [1] was 200 nM. The compound also displayed an IC50 in assay [2] of 500 nM.
Consider `CC1(C)C=C(N2CCCC2=O)c2cc(C#N)ccc2C1=O` [Compound 30], for which, in the assay with hypertense rats, the “Pressure Decrease” value is recorded as 103 mm Hg. This compound had an EC50 in assay [1] of 900 nM. Also, 800 nM corresponded to half-maximal inhibition in assay [2] (IC50).
Regarding `CC(=O)N(C)c1ccc2c(c1)[C@@H](n1ccccc1=O)[C@H](O)C(C)(C)C2=O` (relative stereo) [Compound 36, Trans 4-(1,2-dihydro-2-oxo-1-pyridyl)-2,2-dimethyl-3-hydroxy-6-N-methylacetamide-1,2,3,4-tetrahydronaphthalen-1-one], the “Pressure Decrease” value in the assay with hypertense rats was determined as 94 mm Hg. Moreover, in assay [1], the EC50 is above 100000 nM. This compound also returned an IC50 in assay [2] of 33000 nM.
Turning to `CC1(C)C=C(N2CCCC2=O)c2cc(Br)ccc2C1=O` [Compound 21, 6-bromo-1,2-dihydro-2,2-dimethyl-4-(2-oxo-1-pyrrolidinyl)naphthalen-1-one], in the assay on hypertense rats, the “Pressure Decrease” value turned out to be 60.5 mm Hg. Besides, the response in assay [1] was half-maximal at 19000 nM (EC50). In addition, the IC50 in assay [2] was 10000 nM.
In the case of `CC1(C)C(=O)c2cc(Cl)c(Cl)cc2[C@@H](n2ccccc2=O)[C@@H]1O` (relative stereo) [Compound 57, Trans 6,7-dichloro-4-(1,2-dihydro-2-oxo-1-pyridyl)-2,2-dimethyl-3-hydroxy-1,2,3,4-tetrahydronaphthalen-1-one], in the assay with hypertense rats, the “Pressure Decrease” value was 52 mm Hg. In assay [1], this compound had an EC50 of 500 nM. In assay [2], this compound came in with an IC50 of 1500 nM.
For the compound `CC1(C)C=C(n2ccccc2=O)c2cc(C#N)ccc2C1=O` [Compound 26, 1,2-dihydro-4-(1,2-dihydro-2-oxo-1-pyridyl)-2,2-dimethyl-1-oxonaphthalen-6-carbonitrile], in the assay on hypertense rats, the “Pressure Decrease” value is listed as 96.5 mm Hg. In assay [1], this compound returned an EC50 of 100 nM. In assay [2], this compound came in with an IC50 of 600 nM.
The corresponding values for `CC1(C)C=C(n2ccccc2=O)c2cc(Cl)ccc2C1=O` [Compound 11, 6-chloro-1,2-dihydro-4-(1,2-dihydro-2-oxo-1-pyridyl)-2,2-dimethylnaphthalen-1-one] are 53 mm Hg, 1100 nM and 1400 nM.
On to `CC1(C)C(=O)c2ccc(S(=O)(=O)c3ccccc3)cc2[C@@H](n2ccccc2=O)[C@@H]1O` (relative stereo) [Compound 60, Trans 4-(1,2-dihydro-2-oxo-1-pyridyl)-2,2-dimethyl-3-hydroxy-6-phenylsulphonyl-1,2,3,4-tetrahydronaphthalen-1-one], for which the “Pressure Decrease” value in the assay on hypertense rats was found to be 32.5 mm Hg. In assay [2], this compound came in with a half-inhibitory concentration (IC50) of 300 nM.
As for `CC1(C)C(=O)c2ccc(Br)cc2[C@@H](n2ccccc2=O)[C@@H]1O` (relative stereo) [Compound 14, Trans 6-bromo-4-(1,2-dihydro-2-oxo-1-pyridyl)-2,2-dimethyl-3-hydroxy-1,2,3,4-tetrahydronaphthalen-1-one], the “Pressure Decrease” value with hypertense rats is given as 23 mm Hg. Moreover, the EC50 in assay [1] is above 10000 nM. Half-maximal inhibition in assay [2] (IC50) required 28000 nM.
Regarding `C#Cc1ccc2c(c1)C(n1ccccc1=O)=CC(C)(C)C2=O` [Compound 50, 1,2dihydro-4-(1,2-dihydro-2-oxo-1-pyridyl)-2,2-dimethyl-6-ethynylnaphthalen-1-one], in the assay on hypertense rats, the “Pressure Decrease” value is listed as 112 mm Hg. Besides, in assay [1], the EC50 is 250 nM. The same compound gave a 50% inhibitory concentration (IC50) in assay [2] of 980 nM.
For `CC1(C)C=C(n2ccccc2=O)c2ccc(C#N)cc2C1=O` [Compound 55, 1,2-dihydro-4-(1,2dihydro-2-oxo-1-pyridyl)-2,2-dimethyl-1-oxonaphthalen-7carbonitrile], the “Pressure Decrease” value in the assay on hypertense rats is 41 mm Hg. In assay [2], this compound yielded an IC50 above 10000 nM.
Regarding `CC1(C)C=C(n2ccccc2=O)c2cc(Cl)c(Cl)cc2C1=O` [Compound 58], in the assay on hypertense rats, the “Pressure Decrease” value is listed as 58 mm Hg. In addition, the EC50 in assay [1] was 50 nM. The compound also showed an IC50 in assay [2] of 700 nM.
In the case of `CC1(C)C(=O)c2ccc(C#N)cc2[C@@H](n2ccccc2=O)[C@@H]1O` (relative stereo) [Compound 23, Trans 4(1,2-dihydro-2-oxo-1-pyridyl)-2,2-dimethyl-3-hydroxy-1-oxo-1,2,3,4-tetrahydronaphthalen-6-carbonitrile], in the assay on hypertense rats, the “Pressure Decrease” value was 84 mm Hg. Moreover, in assay [1], a half-maximal effect (EC50) was put at 99000 nM. Also, the IC50 in assay [2] stood at 14000 nM.
`CC1(C)C(=O)c2ccc(C(F)(F)F)cc2[C@@H](n2ccccc2=O)[C@@H]1O` (relative stereo) [Compound 41, Trans 4-(1,2-dihydro-2-oxo-1-pyridyl)-2,2-dimethyl-3-hydroxy-1,2,3,4-tetrahydro-6-trifluoromethylnaphthalen-1-one]: in the assay with hypertense rats, the “Pressure Decrease” value turned out to be 52.6 mm Hg. In assay [1], this compound yielded an EC50 of 1000 nM.
For `CC1(C)C=C(n2ccccc2=O)c2cc(C#C[Si](C)(C)C)ccc2C1=O` [Compound 49, 1,2-dihydro-4-(1,2-dihydro-2-oxo-1-pyridyl)-2,2-dimethyl-6-trimethylsilylethynylnaphthalen-1-one], in the assay with hypertense rats, the “Pressure Decrease” value was found to be 91.5 mm Hg. In assay [1], the midpoint of the response, the EC50, lay at 4800 nM. Moreover, the IC50 in assay [2] is 460 nM.
As to `CC(=O)N(C)c1ccc2c(c1)C(n1ccccc1=O)=CC(C)(C)C2=O` [Compound 38, 1,2-dihydro-4-(1,2-dihydro-2-oxo-1-pyridyl)-2,2-dimethyl-6N-methylacetamidonaphthalen-1-one], the “Pressure Decrease” value in the assay on hypertense rats is given as 49.3 mm Hg. Besides, a half-maximal response in assay [1] (EC50) required 1500 nM. This compound also gave an IC50 in assay [2] of 4300 nM.
Turning to `COc1ccc2c(c1)C(n1ccccc1=O)=CC(C)(C)C2=O` [Compound 6, 1,2-dihydro-4-(1,2-dihydro-2-oxo-1-pyridyl)-2,2-dimethyl-6-methoxynaphthalen-1-one], the “Pressure Decrease” value with hypertense rats is given as 42.5 mm Hg. Besides, the IC50 in assay [2] is 21000 nM.
Take `CC1(C)C=C(n2ccccc2=O)c2cc(C(F)(F)F)ccc2C1=O` [Compound 42, 1,2-dihydro-4-(1,2-dihydro-2-oxo-1-pyridyl)-2,2-dimethyl-6-trifluoromethylnaphthalen-1-one]: the “Pressure Decrease” value in the assay on hypertense rats was determined as 103 mm Hg. In assay [1], this compound came in with an EC50 of 31000 nM. The same compound registered an IC50 in assay [2] of 350 nM.
With `CC(=O)N(C)c1ccc2c(c1)C(N1CCCC1=O)=CC(C)(C)C2=O` [Compound 40, 1,2-dihydro-2,2-dimethyl-6-N-methylacetamido-4-(2-oxo-1-pyrrolidinyl)naphthalen-1-one], the “Pressure Decrease” value in the assay on hypertense rats is given as 23 mm Hg. In assay [1], the response was half-maximal at 2500 nM (EC50). In assay [2], this compound displayed an IC50 of 17000 nM.
For `CC(=O)O[C@H]1[C@H](n2ccccc2=O)c2cc(C#N)ccc2C(=O)C1(C)C` (relative stereo) [Compound 24, Trans 3-acetoxy-4-(1,2-dihydro-2-oxo-1-pyridyl)-2,2-dimethyl-1-oxo-1,2,3,4-tetrahydronaphthalen-6-carbonitrile], in that order: 64.7 mm Hg, 2200 nM and 23000 nM.
As for `CC1(C)C=C(N2CCCC2=O)c2cc(Cl)ccc2C1=O` [Compound 13, 6-chloro-1,2-dihydro-2,2-dimethyl-4-(2-oxo-1-pyrrolidinyl)naphthalen-1-one], the “Pressure Decrease” value with hypertense rats stood at 32 mm Hg. In addition, in assay [1], the EC50 was above 10000 nM. In assay [2], this compound gave an IC50 above 10000 nM.
Consider `CC1(C)C(=O)c2ccc(Br)cc2[C@@H](N2CCCC2=O)[C@@H]1O` (relative stereo) [Compound 18, Trans 6-bromo-2,2-dimethyl-3-hydroxy-4-(2-oxo-1-pyrrolidinyl)-1,2,3,4-tetrahydronaphthalen-1-one], for which, in the assay on hypertense rats, the “Pressure Decrease” value is reported as 39 mm Hg. Further, in assay [1], the EC50 was 78000 nM. This compound showed an IC50 in assay [2] above 10000 nM.
As for `CC1(C)C=C(n2ccccc2=O)c2ccc(Br)cc2C1=O` [Compound 52, 7-bromo-1,2-dihydro-4-(1,2-dihydro-2-oxo-1-pyridyl)-2,2-dimethylnaphthalen-1-one], the “Pressure Decrease” value in the assay with hypertense rats stood at 37 mm Hg. Further, the IC50 in assay [2] stood at 2700 nM.
As for `CC1(C)C(=O)c2ccc(Br)cc2[C@@H](N2Cc3ccccc3C2=O)[C@@H]1O` (relative stereo) [Compound 22, Trans 6-bromo-4-(2,3-dihydro-1-oxo-1H-isoindol-2-yl)-2,2-dimethyl-3-hydroxy-1,2,3,4-tetrahydronaphthalen-1-one], the “Pressure Decrease” value with hypertense rats is 24 mm Hg. The compound further yielded an EC50 in assay [1] above 50000 nM. Besides, in assay [2], the IC50 is 3100 nM.
